# Data taken from ChEMBL document CHEMBL1136640, “The newly synthesized linoleic acid derivative FR236924 induces a long-lasting facilitation of hippocampal neurotransmission by targeting nicotinic acetylcholine receptors” (2003).
# Assays:
# [1] = system: Torpedo; assay: Effect on Torpedo nicotinic ACh receptor responses at 0 min determined by measuring percentage of original amplitude
# [2] = system: Torpedo; assay: Effect on Torpedo nicotinic ACh receptor responses at 10 min determined by measuring percentage of original amplitude
# [3] = system: Rattus norvegicus; assay: Intraperitoneal dose required to facilitate the hippocampal neurotransmission in rat; format: functional, Hippocampus
Structure (SMILES),Original amplitude [1] [%],Original amplitude [2] [%],Dose [3] [mg/kg]
CC/C=C\C/C=C\C/C=C\CCCCCCCC(=O)O,77,272,–
CCC1CC1CC1CC1CC1CC1CCCCCCCC(=O)O (configuration not stated),87,69,–
CCCCC/C=C\C/C=C\C/C=C\C/C=C\CCCC(=O)O,78,139,–
CCCCCCCCC1CC1CCCCCCCC(=O)O (configuration not stated),117,124,–
CCCCCC1CC1CC1CC1CCCCCCCC(=O)O (configuration not stated) [FR-236924],122,156,2
CCCCCC1CC1CC1CC1CC1CC1CC1CC1CCCC(=O)O (configuration not stated),88,78,–
CCCCC/C=C\C/C=C\CCCCCCCC(=O)O,72,175,–
CCCCCCCC/C=C\CCCCCCCC(=O)O,108,139,–
